Source: patent US10894794B1, “Substituted [1,2,4]triazolo[4,3-a]pyrazines as antidiabetics” (King Abdulaziz University, priority 2019, dated 2021)

System: STZ-diabetic mice
Assay: Fasting blood glucose of diabetic mice during six days of treatment
Type: in vivo
Settings: for activity in controlling the rise of blood glucose levels in streptozotocin diabetic animals (in words) / control of fasting blood sugar compared with sitagliptin and the other compounds (in words): 50 mg/kg/day; for activity in controlling the rise of blood glucose levels in streptozotocin diabetic animals (in words): 6-day interval; for control of fasting blood sugar compared with sitagliptin and the other compounds (in words): 6 days; for Blood glucose level, fasting: 50 mg/kg/day oral, diabetic mice, mean ± SEM
Source text: Our objective was to test the efficacy of the synthesized compounds for their potential to reduce blood glucose in STZ-diabetic mice. The synthesized compounds Nos. 128, 129, 130, 131,140, 142 were expected to act through the inhibition of the DPP-IV enzyme, which is responsible for the degradation of the entero-peptide GLP-I. In turn, GLP-I increases insulin and decreases glucagon release from the pancreatic islets (β and α-cells respectively). So this part of the project was designed to study the effect of the synthesized gliptin simulated compounds on blood glucose levels and their efficacy to increase glucose utilization in diabetic mice through: • a. The effect of the tested compounds in a dose of 50 mg/kg/day on fasting blood glucose blood levels of diabetic mice during six days of treatment. • b. Oral glucose tolerance test (OGTT) through oral glucose loading, 2 h after treatment with single oral dose (50 mg/kg) of the tested compounds in 14 h overnight fasted mice. • c. OGTT through oral glucose loading, 2 h after treatment with the 6th oral dose (50 mg/kg) of the tested compounds in 14 h overnight fasted mice. • d. The effect of the pretreatment with the tested compounds at an oral dose of 50 mg/kg on blood glucose levels, 3 h before and 3 h after meal feeding (feeding for one hour only, then food was removed immediately) in 14 h overnight-fasted diabetic mice.
Blood samples were collected from the tail vein and the blood glucose level was determined. Curves of blood glucose levels (mg/dL) versus the time intervals (min) were constructed and the area under the curves (AUCs) were calculated by the method of calculation embedded in GraphPad Prism® v. 5.0 (GraphPad Software, San Diego, Calif., USA). AUCs of the curves of the different groups were compared and tested for significance against control groups.
All data are presented as means±SEM. Statistical significance was evaluated by analysis of variance (ANOVA) followed by Tukey-Kramer's post hoc test for multiple comparisons. The “t” of the paired data was used to test the significance of the values of the fasting blood glucose compared to the values before treatment. Statistical significance was accepted at a level of p<0.05.

| SMILES | activity in controlling the rise of blood glucose levels in streptozotocin diabetic animals (in words) | control of fasting blood sugar compared with sitagliptin and the other compounds (in words) | control of fasting blood sugar compared with sitagliptin and the other compounds (in words) (listed as 130) | Blood glucose level, fasting (Day 1) | Blood glucose level, fasting (Day 4) | Blood glucose level, fasting (Day 5) |
| --- | --- | --- | --- | --- | --- | --- |
| C[C@H](NC(=O)c1cccc(Cl)c1)C(=O)N1CCn2c(nnc2C(F)(F)F)C1 [GLP-130] | significant activity | most consistent and extended activities | comparable to that of sitagliptin | – | – | – |
| O=C(CN1CCn2c(nnc2C(F)(F)F)C1)NC1CCCCC1 [GLP-140] | significant activity | comparable to that of sitagliptin | – | 210.0 ± 12.345 mg/dL | – | – |
| N#Cc1cccc(NC(=O)CN2CCn3c(nnc3C(F)(F)F)C2)c1 [GLP-142] | significant activity | comparable to that of sitagliptin | – | 230.0 ± 13.769 mg/dL | 188.8 ± 25.784 mg/dL | 205.4 ± 39.315 mg/dL |
